# Counter-ions that a name gives are not always drawn. Like-named read-outs stand apart in the source and are kept apart here.
# Experiments:
# [1] = molecular target: BCL-2 (Homo sapiens (Human), UniProt P10415); experiment: Protein-protein interaction assay BCL-2/Bad BH3 peptide (BCL-2 assay, TR-FRET); type: binding; conditions: read-out: BCL-2 Assay IC50 (median)
# Protocol: Assay 3 Protein-Protein Interaction Assay: BCL-2/Bad BH3 Peptide (BCL-2 Assay)
# The dose-dependent inhibition by the compounds described in this invention of the interaction between BCL-2 and the BH3 domain of Bad (both human) was determined using a steady state binding competition assay with time-resolved fluorescence energy transfer (TR-FRET) readout. For that purpose BCL-2 (amino acids 1-211, C-terminal fused to a hexahistidine (6×His) tag (SEQ ID 5) and a synthetic Bad BH3-derived peptide of sequence Biotin-PEG2-PEG2-[…]-Nle-[…]-amide (SEQ ID 4) served as protein receptor and tracer ligand respectively. The recombinant BCL-2 protein (expressed in E. coli) was purchased from BPS Bioscience (San Diego, Calif., USA). The Bad BH3-derived peptide can be obtained from e.g. Biosyntan (Berlin, Germany).
# In the assay 11 different concentrations of each compound (0.1 nM, 0.33 nM, 1.1 nM, 3.8 nM, 13 nM, 44 nM, 0.15 μM, 0.51 μM, 1.7 μM, 5.9 μM and 20 μM) were typically measured as duplicates in the same microtiter plate. For that, 100-fold concentrated DMSO solutions were prepared by serial dilutions (1:3.4) of a 2 mM stock solution in a clear, 384-well microtiter plate (Greiner Bio-One, Frickenhausen, Germany). From there, 50 nl were transferred in a dark test plate (Greiner Bio-One, Frickenhausen, Germany). The assay was initiated by addition of 2 μL of a 2,5-fold concentrated His-BCL-2 solution (usually for a 1 nM end concentration in 5 μL reaction volume) in aqueous assay buffer [50 mM Tris/HCl pH 7, 100 mM sodium chloride (NaCl), 50 mM potassium fluoride (KF), 0.005% Tween-20, 2 mM DTT, 0.1% bovine gamma globulin (BGG)] to the compounds in the assay plate. This was followed by a 10-minute incubation step at 22° C. for pre-equilibration of the putative complex between His-BCL-2 and the compounds. After that, 3 μL of a 1.67-fold concentrated solution (in assay buffer) consisting of Bad BH3-derived peptide (1 nM end concentration) and TR-FRET detection reagents [1.67 nM anti-His-Eu cryptate and 1.67 nM streptavidin-XL665 (both from Cisbio Bioassays, Codolet, France)], were added.
# The mixture was incubated in the dark for one hour at 22° C. and then overnight at 4° C. The formation of BCL-2/Bad complexes was determined by measuring the resonance energy transfer of the anti-His-Eu-cryptate antibody to the streptavidin-XL665 present in the reaction. For that purpose, the fluorescence emission at 620 nm and 665 nm after excitation at 330-350 nm was measured in a TR-FRET measuring instrument, for instance a Rubystar or a Pherastar (both from BMG Lab Technologies, Offenburg, Germany) or a Viewlux (Perkin-Elmer). The ratio of the emission at 665 nm and at 622 nm was used as indicator of the amount of BCL-2/Bad complexes present.
# The resulting data (ratio) were normalized, taking 0% inhibition as the mean value of control measurements (usually 32 data points) where all reagents were included. In this case 50 nl DMSO were used instead of compounds. […] IC50 values were determined by regression analysis based on a 4 parameter equation (minimum, maximum, IC50, Hill; Y=Max+(Min−Max)/(1+(X/IC50)^Hill) using the Screener Software (Genedata).
# [2] = tested on: SUDHL5 cells; experiment: Induction of caspase-3/7 activity in SUDHL5 cells (Assay 4); type: cell-based
# Procedure, shortened: (§1)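 Caspase-3/7 activity measured in DLBCL lines after 3 h compound exposure at 37 °C, following overnight plating; Caspase-Glo 3/7 luminescence read after 1 h at 37 °C. Medium-only background subtracted, values normalized to mean of DMSO-treated cells.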
# [3] = tested on: SUDHL10 cells; experiment: Induction of caspase-3/7 activity in SUDHL10 cells (Assay 4); type: cell-based
# Procedure, shortened: as §1
# [4] = tested on: SUDHL5 cells; experiment: Antiproliferation assay SUDHL5 (Assay 7); type: cell-based
# Procedure, shortened: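 Growth inhibition is determined from ATP luminescence (CellTiter-Glo) following 72 h incubation with compound. Time-zero cells are measured the same way for baseline, and IC50s are referenced to DMSO controls.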
# [5] = Homo sapiens, SU-DHL-5, 3 h, caspase-3/7 induction, 3 h, read-out: Caspase SUDHL5 EC50 (median)
# [6] = Homo sapiens, SU-DHL10, 3 h, caspase-3/7 induction, 3 h, read-out: Caspase SUDHL10 EC50 (median)
# [7] = Homo sapiens, SU-DHL-5, 72 h, 72 h, CellTiter-Glo, read-out: Antiproli SUDHL5 IC50 (median)
# [8] = caspase-3/7 induction, 3 h, read-out: Caspase SUDHL5 EC50 (median)
# [9] = caspase-3/7 induction, 3 h, read-out: Caspase SUDHL10 EC50 (median)
# [10] = 72 h, CellTiter-Glo, read-out: Antiproli SUDHL5 IC50 (median)
# [11] = Homo sapiens, SU-DHL-5, 72 h, read-out: Antiproli SUDHL5 IC50 (median), 72 h, CellTiter-Glo
# [12] = read-out: Caspase SUDHL5 EC50 (median), caspase-3/7 induction, 3 h
# [13] = read-out: Caspase SUDHL10 EC50 (median), caspase-3/7 induction, 3 h
# BCL-2, sequence (P10415 1-211): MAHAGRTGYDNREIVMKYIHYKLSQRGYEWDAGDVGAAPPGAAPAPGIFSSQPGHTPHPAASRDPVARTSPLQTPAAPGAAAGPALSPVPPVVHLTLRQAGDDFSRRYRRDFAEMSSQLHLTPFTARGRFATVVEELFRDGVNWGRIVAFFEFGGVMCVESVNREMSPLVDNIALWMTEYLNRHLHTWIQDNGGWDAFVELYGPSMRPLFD
SMILES,IC50 [1] [nM],"EC50 [2, 5] [nM]","EC50 [3, 6] [nM]","IC50 [4, 7] [nM]",other results
"CCc1c2c(nn1C)C(CCN1CCC(F)(F)C1)OCCCCn1c(C(=O)O)c(CCCOc3cccc4cc(F)ccc34)c3ccc(Cl)c-2c31 (racemic) [Example 55, (rac)-4-chloro-(15-rac)-[2-(3,3-difluoropyrrolidin-1-yl)ethyl]-3-ethyl-7-{3-[(6-fluoronaphthalen-1-yl)oxy]propyl}-2-methyl-2,10,11,12,13,15-hexahydropyrazolo[4′,3′:9,10][1,6]oxazacycloundecino[8,7,6-hi]indole-8-carboxylic acid—2-hydroxypropane-1,2,3-tricarboxylic Acid Salt]",> 20000,32,47,67,
"CCc1c2c(nn1C)C(CCC1CCOCC1)OCCCCn1c(C(=O)O)c(CCCOc3cccc4cc(F)ccc34)c3ccc(Cl)c-2c31 (racemic) [Example 60, (rac)-4-chloro-3-ethyl-7-{3-[(6-fluoronaphthalen-1-yl)oxy]propyl}-2-methyl-(15-rac)-[2-(oxan-4-yl)ethyl]-2,10,11,12,13,15-hexahydropyrazolo[4′,3′:9,10][1,6]oxazacycloundecino[8,7,6-hi]indole-8-carboxylic Acid]",14100,50,77,65,
"Cc1c2c(nn1C)C(CCN1CCOCC1)OCCCCn1c(C(=O)O)c(CCCOc3cccc4ccccc34)c3ccc(Cl)c-2c31 (single isomer, unassigned; enantiomer 1) [Example 14, 4-chloro-2,3-dimethyl-15-[2-(morpholin-4-yl)ethyl]-7-{3-[(naphthalen-1-yl)oxy]propyl}-2,10,11,12,13,15-hexahydropyrazolo[4′,3′:9,10][1,6]oxazacycloundecino[8,7,6-hi]indole-8-carboxylic Acid (Enantiomer 1)]",> 20000,,,,"EC50 [2, 8]: 9.8 nM; EC50 [3, 9]: 31 nM; IC50 [4, 10]: 28 nM"
"Cc1c2c(nn1C)C(CCN1CCOCC1)OCCCCn1c(C(=O)O)c(CCCOc3cccc4cc(F)ccc34)c3ccc(F)c-2c31 (single isomer, unassigned; enantiomer 1) [Example 20, 4-fluoro-7-{3-[(6-fluoronaphthalen-1-yl)oxy]propyl}-2,3-dimethyl-15-[2-(morpholin-4-yl)ethyl]-2,10,11,12,13,15-hexahydropyrazolo[4′,3′:9,10][1,6]oxazacycloundecino[8,7,6-hi]indole-8-carboxylic Acid—N-ethylethanamine (Enantiomer 1)]",> 20000,,,,"EC50 ([2]; Homo sapiens, SU-DHL-5, 3 h, read-out: Caspase SUDHL5 EC50 (median), caspase-3/7 induction, 3 h): 29 nM; EC50 ([3]; Homo sapiens, SU-DHL10, 3 h, read-out: Caspase SUDHL10 EC50 (median), caspase-3/7 induction, 3 h): 32 nM; IC50 [4, 11]: 20 nM"
"Cc1c2c(nn1C)C(CCO)OCCCCn1c(C(=O)O)c(CCCOc3cccc4ccccc34)c3ccc(Cl)c-2c31 (single isomer, unassigned; enantiomer 1) [Example 31, (+)-4-chloro-15-(2-hydroxyethyl)-2,3-dimethyl-7-{3-[(naphthalen-1-yl)oxy]propyl}-2,10,11,12,13,15-hexahydropyrazolo[4′,3′:9,10][1,6]oxazacycloundecino[8,7,6-hi]indole-8-carboxylic Acid (Enantiomer 1)]",> 20000,,,,"EC50 [2, 8]: 280 nM; EC50 [3, 9]: 240 nM; IC50 [4, 10]: 240 nM"
"Cc1c2c(nn1C)C(C1CC1)OCCCCn1c(C(=O)O)c(CCCOc3cccc4ccccc34)c3ccc(Cl)c-2c31 (single isomer, unassigned; enantiomer 1) [Example 35, (+)-4-chloro-15-cyclopropyl-2,3-dimethyl-7-{3-[(naphthalen-1-yl)oxy]propyl}-2,10,11,12,13,15-hexahydropyrazolo[4′,3′:9,10][1,6]oxazacycloundecino[8,7,6-hi]indole-8-carboxylic Acid N-ethylethanamine Salt (Enantiomer 1)]",> 20000,,,,"EC50 [2, 12]: 2100 nM; EC50 [3, 13]: 5900 nM; IC50 [4, 11]: 2700 nM"
"CCc1c2c(nn1C)C(CCOC)OCCCCn1c(C(=O)O)c(CCCOc3cccc4cc(F)ccc34)c3ccc(Cl)c-2c31 (single isomer, unassigned; enantiomer 1) [Example 42, (+)-4-chloro-3-ethyl-7-{3-[(6-fluoronaphthalen-1-yl)oxy]propyl}-15-(2-methoxyethyl)-2-methyl-2,10,11,12,13,15-hexahydropyrazolo[4′,3′:9,10][1,6]oxazacycloundecino[8,7,6-hi]indole-8-carboxylic Acid—N-ethylethanamine Salt (Enantiomer 1)]",> 20000,,,,"EC50 [2, 12]: 14 nM; EC50 [3, 13]: 52 nM; IC50 [4, 11]: 52 nM"

# Further lines, with some results ahead:
IC50 [1] [nM],"EC50 [2, 5] [nM]","EC50 [3, 6] [nM]","IC50 [4, 7] [nM]",SMILES,other results
13200,430,570,5100,"CCc1c2c(nn1C)C(c1ccccc1)OCCCCn1c(C(=O)O)c(CCCOc3cccc4cc(F)ccc34)c3ccc(Cl)c-2c31 (racemic) [Example 59, (rac)-4-chloro-3-ethyl-7-{3-[(6-fluoronaphthalen-1-yl)oxy]propyl}-2-methyl-(15-rac)-phenyl-2,10,11,12,13,15-hexahydropyrazolo[4′,3′:9,10][1,6]oxazacycloundecino[8,7,6-hi]indole-8-carboxylic Acid]",
> 20000,48,42,490,"CCc1c2c(nn1C)C(CCCN1CCOCC1)OCCCCn1c(C(=O)O)c(CCCOc3cccc4cc(F)ccc34)c3ccc(Cl)c-2c31 (racemic) [Example 65, (rac)-4-chloro-3-ethyl-7-{3-[(6-fluoronaphthalen-1-yl)oxy]propyl}-2-methyl-(15-rac)-[3-(morpholin-4-yl)propyl]-2,10,11,12,13,15-hexahydropyrazolo[4′,3′:9,10][1,6]oxazacycloundecino[8,7,6-hi]indole-8-carboxylic Acid]",
19600,45,33,67,"CCc1c2c(nn1C)C(CCC(C)(C)O)OCCCCn1c(C(=O)O)c(CCCOc3cccc4cc(F)ccc34)c3ccc(Cl)c-2c31 (racemic) [Example 74, (rac)-4-chloro-3-ethyl-7-{3-[(6-fluoronaphthalen-1-yl)oxy]propyl}-(15-rac)-(3-hydroxy-3-methylbutyl)-2-methyl-2,10,11,12,13,15-hexahydropyrazolo[4′,3′:9,10][1,6]oxazacycloundecino[8,7,6-hi]indole-8-carboxylic Acid]",
12200,960,1100,1200,"CCc1c2c(nn1C)C(Cc1ccccc1)OCCCCn1c(C(=O)O)c(CCCOc3cccc4cc(F)ccc34)c3ccc(Cl)c-2c31 (racemic) [Example 92, (rac)-(rac-15)-benzyl-4-chloro-3-ethyl-7-{3-[(6-fluoro-1-naphthyl)oxy]propyl}-2-methyl-2,10,11,12,13,15-hexahydropyrazolo[4′,3′:9,10][1,6]oxazacycloundecino[8,7,6-hi]indole-8-carboxylic Acid]",

# Source: US11440923B2, “Substituted macrocyclic indole derivatives” (Bayer Aktiengesellschaft, priority 2017, dated 2022)
